Earlier results as cited in patent US6541487B1, “PDE III inhibitors for treating sexual dysfunction” (R.T. Alamo Ventures I, LLC, priority 1998, dated 2003).
Values belong to the compound of their own block, whether it stands above or below them.

Experiments:
[1] = system: coronary vascular smooth muscle tissue
[2] = system: plasma high density lipoprotein cholesterol; conditions: in vivo
[3] = following oral administration
[4] = not given; remark: listed apart in the source
[5] = for priapism: treatment of impotence
corpus cavernosum = conditions: intracavernosal injection; severe atherosclerosis not involved

Structure (SMILES): CCCc1nn(C)c2c(=O)[nH]c(-c3cc(S(=O)(=O)N4CCN(C)CC4)ccc3OCC)nc12 [Sildenafil]
- cyclic AMP levels [1]: no change
- cyclic GMP levels [1]: selectively increases
- inhibition of PDE III (PDE III): negligible inhibition

Structure (SMILES): O=C1CCc2cc(OCCCCc3nnnn3C3CCCCC3)ccc2N1 [cilostazol, 6-[4-(1-cyclohexyl-5-tetrazoyl)butoxy]-1,2,3,4-tetrahydro-2-oxoquinoline]
- plasma high density lipoprotein cholesterol [2]: increasing
- time of peak plasma concentrations of cilostazol [3]: 2 to 4 h
- platelet aggregation (platelet aggregation): suppresses

- solubility in organic solvents: soluble in many organic solvents
- solubility in water: water soluble
- time of peak plasma concentrations of flosequinan ([4]; following oral administration): 1 to 2 h
- time of peak metabolite plasma levels ([4]; following oral dosage, metabolite of flosequinan): about seven
- mean absolute bioavailability ([4]; oral, single dose per day of 50 milligrams or 75 milligrams): 72%
Structure (SMILES): Cn1cc([S+](C)[O-])c(=O)c2ccc(F)cc21 (stereo not drawn) [flosequinan, 7-fluoro-1-methyl-3-methylsulphinyl-4-quinolone]
- inhibition of PDE III (PDE III): selective inhibitor

Structure (SMILES): COc1ccc(Cc2nccc3cc(OC)c(OC)cc23)cc1OC [papaverine]
- priapism [5]: often results in priapism
- erection after injection into a corpus cavernosum (corpus cavernosum): erection sufficient for vaginal penetration

Structure (SMILES): CC(COc1ccccc1)N(CCCl)Cc1ccccc1 (stereo not drawn) [phenoxybenzamine]
- carcinogenicity ([5]; in vivo): carcinogen
- priapism [5]: often results in priapism
- erection after injection into a corpus cavernosum (corpus cavernosum): erection sufficient for vaginal penetration

Structure (SMILES): Cc1ccc(N(CC2=NCCN2)c2cccc(O)c2)cc1 [phentolamine]
- erection after injection into a corpus cavernosum (corpus cavernosum): erection sufficient for vaginal penetration
